Experiments:
[1] = Stability of monatin at high temperature (80° C.) and neutral pH, LC-MS; assay type: physicochemical; conditions: pH 7, 75 ppm, after 7-35 days
Description: A 100 milliliter solution of 75 ppm monatin at pH 7 was used as a stock solution. The synthetic monatin sample contained approximately 96% of the 2R,4R/2S,4S enantiomeric pair and 4% of the 2R,4S/2S,4R enantiomeric pair. Samples were incubated at 80° C. and pH 7 for the duration of the experiment and samples were withdrawn at 0, 1, 2, 3, 4 hours and 1, 2, 4, 7, 14, 21 and 35 days. All experimental conditions were run in duplicate.
Separation and Quantification Using LC-MS using Reverse Phase Chromatography A response curve was established for both detected diastereomer peaks of the synthetic monatin. A range of 5-150 ppm was bracketed with the synthetic monatin standard dissolved in DI water. Separation of the two diastereomer peaks was accomplished using a 3.9×1 50 mm Novapak C18 (Waters Corporation) HPLC column. Ultraviolet-Visible (UV) and Mass Spectrometer (MS) detectors were used in series for detection and quantitation. Monatin and its lactone peak each have a UVmax at 279 nm that aided in precise detection. Quantification was done by acquiring Selected Ion Monitoring (SIM) scan of 293.3 m/z and 275.3 m/z in positive-ion electrospray mode.

[2] = Quantitative sweetness synergy of monatin in blends with other sweeteners; assay type: in vivo
[3] = Sensory stability of monatin and aspartame at pH 2.5, 3.0, 4.0 at 40° C. (sweetness vs sucrose standards, panel n=8); assay type: physicochemical; conditions: for Rate constant (k; day^−1) of sweetness loss: pseudo-first order assumed
Description: The sensory stability of monatin solutions prepared at pH 2.5, 3.0 and 4.0 and stored at 40° C. was monitored for 100 days. Loss of sweetness from these solutions was compared with the losses of sweetness from aspartame solutions prepared and stored under identical conditions.
The sensory stability of monatin (8% SEV, ˜55 ppm, synthetic blend containing approximately 96% of the 2R,4R/2S, 4S enantiometric pair and 4% of the 2R,4S/2S,4R enantiometric pair) in phosphate/citrate buffers having a pH of 2.5, 3.0, and 4.0 was examined after storage at 40° C. The stability of monatin was compared to that of aspartame (400 ppm) in the same buffers. Three sucrose reference solutions were prepared in the same phosphate/citrate buffers as the monatin and aspartame solutions. All prepared solutions were stored in the dark.
• pH2.5 Phosphoric acid (75% solution) 0.127% (w/v) • Tri-sodium citrate monohydrate 0.005% (w/v) • pH3.0 Phosphoric acid (75% solution) 0.092% (w/v) • Tri-sodium citrate monohydrate 0.031% (w/v) • pH4.0 Phosphoric acid (75% solution) 0.071% (w/v) • Tri-sodium citrate monohydrate 0.047% (w/v)
The sweetness of each sweetener relative to sucrose was assessed in duplicate by a small panel (n=8) of trained sensory evaluators experienced in the sweetness estimation procedure. All samples (in the same buffers) were served in duplicate at a temperature of 22° C.±1° C. Monatin (test) solutions, coded with 3 digit random number codes were presented individually to panelists, in random order. Sucrose reference standards, ranging from 4.0-10.0% (w/v) sucrose, increasing in steps of 0.5% (w/v) sucrose were also provided. Panelists were asked to estimate sweetness by comparing the sweetness of the test solution to the sucrose standards. This was carried out by taking 3 sips of the test solution, followed by a sip of water, followed by 3 sips of sucrose standard followed by a sip of water, etc. Panelists were encouraged to estimate the sweetness to one decimal place, e.g., 6.8, 8.5. A five minute rest period was imposed between evaluating the test solutions. Panelists were also asked to rinse well and eat a cracker to reduce any potential carry over effects.
If a pseudo-first order breakdown reaction is assumed, a plot of logn percentage retention versus time (logn% RTN v. t) allows estimation of the half-life (t½) and rate constant (k) of sweetness loss under any given set of conditions. In so doing, the kinetics of monatin and aspartame sweetness loss may be summarized as follows in Table 13.

[4] = Stability of monatin at pH 3 with increasing temperatures; assay type: physicochemical
Description: A sample of synthetic monatin was subjected to pH 3 at temperatures of 25° C., 50° C. and 100° C. At room temperature and pH 3, a 14% loss in monatin was observed over a period of 48 hours. This loss was attributed to lactone formation. At 50° C. and pH 3, a 23% loss in monatin was observed over a period of 48 hours. This loss was attributed to lactone formation and the buildup of an unknown compound after about 15.5 minutes. […] The major detectable component was an unknown at 15.5 minutes.

[5] = pH 2.5, 40° C., day 1, monatin ~55 ppm
[6] = pH 2.5, 40° C., day 2, monatin ~55 ppm
[7] = pH 2.5, 40° C., day 3, monatin ~55 ppm
[8] = pH 2.5, 40° C., day 4, monatin ~55 ppm
[9] = pH 2.5, 40° C., day 7, monatin ~55 ppm
[10] = pH 2.5, 40° C., day 8, monatin ~55 ppm
[11] = pH 2.5, 40° C., day 9, monatin ~55 ppm
[12] = pH 2.5, 40° C., day 11, monatin ~55 ppm
[13] = pH 2.5, 40° C., day 50, monatin ~55 ppm
[14] = pH 2.5, 40° C., day 100, monatin ~55 ppm
[15] = pH 3.0, 40° C., day 1, monatin ~55 ppm
[16] = pH 3.0, 40° C., day 2, monatin ~55 ppm
[17] = pH 3.0, 40° C., day 3, monatin ~55 ppm
[18] = pH 3.0, 40° C., day 4, monatin ~55 ppm
[19] = pH 3.0, 40° C., day 7, monatin ~55 ppm
[20] = pH 3.0, 40° C., day 8, monatin ~55 ppm
[21] = pH 3.0, 40° C., day 9, monatin ~55 ppm
[22] = pH 3.0, 40° C., day 11, monatin ~55 ppm
[23] = pH 3.0, 40° C., day 50, monatin ~55 ppm
[24] = pH 3.0, 40° C., day 100, monatin ~55 ppm
[25] = pH 4.0, 40° C., day 3, monatin ~55 ppm
[26] = pH 4.0, 40° C., day 8, monatin ~55 ppm
[27] = pH 4.0, 40° C., day 11, monatin ~55 ppm
[28] = pH 4.0, 40° C., day 17, monatin ~55 ppm
[29] = pH 4.0, 40° C., day 24, monatin ~55 ppm
[30] = pH 4.0, 40° C., day 50, monatin ~55 ppm
[31] = pH 4.0, 40° C., day 100, monatin ~55 ppm

degree of degradation of monatin [1]: insignificant
Retention of Monatin Sweetness (%) [3, 5]: 93.3%
Retention of Monatin Sweetness (%) [3, 6]: 91.2%
Retention of Monatin Sweetness (%) [3, 7]: 88.4%
Retention of Monatin Sweetness (%) [3, 8]: 85.2%
Retention of Monatin Sweetness (%) [3, 9]: 82.7%
Retention of Monatin Sweetness (%) [3, 10]: 81.4%
Retention of Monatin Sweetness (%) [3, 11]: 80.1%
Retention of Monatin Sweetness (%) [3, 12]: 78.6%
Retention of Monatin Sweetness (%) [3, 13]: 62.7%
Retention of Monatin Sweetness (%) [3, 14]: 28.6%
Rate constant (k; day^−1) of sweetness loss ([3]; pH 2.5, 40° C.): 0.011 day⁻¹
Sweetness Retained (%) ([3]; pH 2.5, 100 days storage at 40° C.): 29%
Retention of Monatin Sweetness (%) [3, 15]: 99.6%
Retention of Monatin Sweetness (%) [3, 16]: 93.2%
Retention of Monatin Sweetness (%) [3, 17]: 91.4%
Retention of Monatin Sweetness (%) [3, 18]: 91.6%
Retention of Monatin Sweetness (%) [3, 19]: 85.3%
Retention of Monatin Sweetness (%) [3, 20]: 83.8%
Retention of Monatin Sweetness (%) [3, 21]: 83.1%
Retention of Monatin Sweetness (%) [3, 22]: 83.1%
Retention of Monatin Sweetness (%) [3, 23]: 72.3%
Retention of Monatin Sweetness (%) [3, 24]: 57.9%
Rate constant (k; day^−1) of sweetness loss ([3]; pH 3.0, 40° C.): 0.006 day⁻¹
Sweetness Retained (%) ([3]; pH 3.0, 100 days storage at 40° C.): 58%
Retention of Monatin Sweetness (%) [3, 25]: 95.7%
Retention of Monatin Sweetness (%) [3, 26]: 86.8%
Retention of Monatin Sweetness (%) [3, 27]: 85.9%
Retention of Monatin Sweetness (%) [3, 28]: 82.4%
Retention of Monatin Sweetness (%) [3, 29]: 84.5%
Retention of Monatin Sweetness (%) [3, 30]: 82.9%
Retention of Monatin Sweetness (%) [3, 31]: 78.4%
Rate constant (k; day^−1) of sweetness loss ([3]; pH 4.0, 40° C.): 0.003 day⁻¹
Sweetness Retained (%) ([3]; pH 4.0, 100 days storage at 40° C.): 78%
loss in monatin ([4]; 50° C., pH 3, 48 hours): 23%
loss in monatin ([4]; 100° C., pH 3, 24 hours): nearly all monatin was lost
loss in monatin ([4]; room temperature (25° C.), pH 3, 48 hours): 14%
SMILES: NC(CC(O)(Cc1c[nH]c2ccccc12)C(=O)O)C(=O)O (stereo not drawn) [Monatin, 2-hydroxy-2-(indol-3-ylmethyl)-4-aminoglutaric acid]
quantitative synergy with cyclamates ([2]; blend with cyclamates): quantitatively synergistic
quantitative synergy with other sweeteners ([2]; with aspartame, saccharin, acesulfame-K, sucralose, or carbohydrate sweeteners): no significant quantitative synergy
SEV Monatin (% sucrose) ([3]; pH 2.5, 40° C., day 0, monatin ~55 ppm): 7.35 % sucrose
SEV Monatin (% sucrose) [3, 5]: 6.86 % sucrose
SEV Monatin (% sucrose) [3, 6]: 6.70 % sucrose
SEV Monatin (% sucrose) [3, 7]: 6.50 % sucrose
SEV Monatin (% sucrose) [3, 8]: 6.26 % sucrose
SEV Monatin (% sucrose) [3, 9]: 6.08 % sucrose
SEV Monatin (% sucrose) [3, 10]: 5.98 % sucrose
SEV Monatin (% sucrose) [3, 11]: 5.89 % sucrose
SEV Monatin (% sucrose) [3, 12]: 5.78 % sucrose
SEV Monatin (% sucrose) [3, 13]: 4.61 % sucrose
SEV Monatin (% sucrose) [3, 14]: 2.10 % sucrose
SEV Monatin (% sucrose) ([3]; pH 3.0, 40° C., day 0, monatin ~55 ppm): 7.08 % sucrose
SEV Monatin (% sucrose) [3, 15]: 7.05 % sucrose
SEV Monatin (% sucrose) [3, 16]: 6.60 % sucrose
SEV Monatin (% sucrose) [3, 17]: 6.47 % sucrose
SEV Monatin (% sucrose) [3, 18]: 6.49 % sucrose
SEV Monatin (% sucrose) [3, 19]: 6.04 % sucrose
SEV Monatin (% sucrose) [3, 20]: 5.93 % sucrose
SEV Monatin (% sucrose) [3, 21]: 5.88 % sucrose
SEV Monatin (% sucrose) [3, 22]: 5.88 % sucrose
SEV Monatin (% sucrose) [3, 23]: 5.12 % sucrose
SEV Monatin (% sucrose) [3, 24]: 4.10 % sucrose
SEV Monatin (% sucrose) ([3]; pH 4.0, 40° C., day 0, monatin ~55 ppm): 7.40 % sucrose
SEV Monatin (% sucrose) [3, 25]: 7.08 % sucrose
SEV Monatin (% sucrose) [3, 26]: 6.42 % sucrose
SEV Monatin (% sucrose) [3, 27]: 6.36 % sucrose
SEV Monatin (% sucrose) [3, 28]: 6.10 % sucrose
SEV Monatin (% sucrose) [3, 29]: 6.25 % sucrose
SEV Monatin (% sucrose) [3, 30]: 6.14 % sucrose
SEV Monatin (% sucrose) [3, 31]: 5.80 % sucrose
